pIC50: −log10 of the molar value.
Target: T1, purified human HDAC6 (Homo sapiens, UniProt Q9UBN7)
T1 construct: purchased BPS Bioscience 5006
T1 sequence (Q9UBN7 1-1215): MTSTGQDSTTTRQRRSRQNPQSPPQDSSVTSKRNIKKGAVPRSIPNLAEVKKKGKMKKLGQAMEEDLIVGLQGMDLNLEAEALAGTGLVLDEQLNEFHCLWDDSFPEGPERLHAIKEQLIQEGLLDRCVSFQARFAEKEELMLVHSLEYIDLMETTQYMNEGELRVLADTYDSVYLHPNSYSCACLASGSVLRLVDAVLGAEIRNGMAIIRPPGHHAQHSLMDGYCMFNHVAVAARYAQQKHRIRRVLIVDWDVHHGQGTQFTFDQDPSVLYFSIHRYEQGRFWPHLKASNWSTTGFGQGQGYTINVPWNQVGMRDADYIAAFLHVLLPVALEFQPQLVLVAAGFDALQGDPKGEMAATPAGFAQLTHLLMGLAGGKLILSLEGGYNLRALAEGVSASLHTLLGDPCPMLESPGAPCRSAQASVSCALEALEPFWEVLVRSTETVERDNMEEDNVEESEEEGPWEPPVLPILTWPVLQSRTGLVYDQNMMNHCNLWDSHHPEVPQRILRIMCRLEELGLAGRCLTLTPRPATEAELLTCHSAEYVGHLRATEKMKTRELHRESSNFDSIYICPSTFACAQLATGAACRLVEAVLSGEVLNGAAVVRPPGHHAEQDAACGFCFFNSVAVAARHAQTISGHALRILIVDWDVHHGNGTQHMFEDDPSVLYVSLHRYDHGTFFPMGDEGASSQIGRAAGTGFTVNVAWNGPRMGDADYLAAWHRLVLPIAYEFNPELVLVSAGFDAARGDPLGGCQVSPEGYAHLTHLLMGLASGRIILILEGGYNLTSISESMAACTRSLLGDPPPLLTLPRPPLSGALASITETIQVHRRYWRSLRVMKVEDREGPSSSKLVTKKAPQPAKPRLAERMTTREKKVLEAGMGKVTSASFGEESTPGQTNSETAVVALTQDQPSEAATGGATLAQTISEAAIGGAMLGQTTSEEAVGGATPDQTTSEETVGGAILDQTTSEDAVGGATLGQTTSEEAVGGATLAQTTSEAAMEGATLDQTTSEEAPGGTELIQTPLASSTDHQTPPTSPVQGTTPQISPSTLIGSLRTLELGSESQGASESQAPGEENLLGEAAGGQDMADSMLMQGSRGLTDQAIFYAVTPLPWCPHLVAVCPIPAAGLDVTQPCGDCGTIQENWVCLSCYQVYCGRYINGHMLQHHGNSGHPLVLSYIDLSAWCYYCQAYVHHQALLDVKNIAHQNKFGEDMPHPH
Experiment: HDAC6 Enzyme Assay
Assay type: biochemical
Details: for IC50: bin: greater than 500 nM and less than 1 μM (lower bound in nM, upper bound in μM)
In short: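 Purified human HDAC6 incubated 1 h at 30 °C with Ac-Arg-Gly-Lys(Ac)-AMC and compound; trichostatin A stop, trypsin release of AMC, fluorescence Ex 340/Em 460 nm. IC50 from concentration–response relative to DMSO.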

[1] = purified human HDAC6, substrate Ac-Arg-Gly-Lys(Ac)-AMC, 1 hour at 30° C., reported as bins

| pIC50 [1] | Compound | other results |
| --- | --- | --- |
| > 7.00 | C[C@@H](NC(=O)Nc1ccccc1-c1ccccc1)c1ccc(C(=O)NO)cc1 [Compound I-523, 4-((1R)-1-{[(biphenyl-2-ylamino)carbonyl]amino}ethyl)-N-hydroxybenzamide] | – |
| > 7.00 | O=C(NO)c1ccc([C@H](NC(=O)c2cc3ccccc3o2)C(F)(F)F)cc1 [Compound I-400, N-((1S)-2,2,2-trifluoro-1-{4-[(hydroxyamino)carbonyl]phenyl}ethyl)-1-benzofuran-2-carboxamide] | – |
| 6.30 to 7.00 | CC(C)C(NC(=O)C1(c2ccccc2)CCCC1)c1ccc(C(=O)NO)cc1 (stereo not shown) [Compound I-258, N-hydroxy-4-(2-methyl-1-{[(1-phenylcyclopentyl)carbonyl]amino}propyl)benzamide] | – |
| 6.30 to 7.00 | Cc1cc(C(=O)NC(c2ccc(C(=O)NO)cc2)C(C)C)c(C)o1 (stereo not shown) [Compound I-252, N-(1-{4-[(hydroxyamino)carbonyl]phenyl}-2-methylpropyl)-2,5-dimethyl-3-furamide] | – |
| > 7.00 | CC(NC(=O)c1ccc(C(C)(C)C)cc1)c1ccc(C(=O)NO)cc1 (stereo not shown) [Compound I-350, 4-tert-butyl-N-(1-{4-[(hydroxyamino)carbonyl]phenyl}ethyl)benzamide] | – |
| 6.30 to 7.00 | CC(NS(=O)(=O)c1cc2ccccc2s1)c1ccc(C(=O)NO)cc1 (stereo not shown) [Compound I-369, 4-{1-[(1-benzothien-2-ylsulfonyl)amino]ethyl}-N-hydroxybenzamide] | – |
| > 7.00 | CC(NC(=O)Nc1c(F)cccc1F)c1ccc(C(=O)NO)cc1 (stereo not shown) [Compound I-261, 4-[1-({[(2,6-difluorophenyl)amino]carbonyl}amino)ethyl]-N-hydroxybenzamide] | – |
| 6.30 to 7.00 | CC(NC(=O)c1cn(C)c2ccccc12)c1cccc(C(=O)NO)c1 (stereo not shown) [Compound I-353, N-(1-{3-[(hydroxyamino)carbonyl]phenyl}ethyl)-1-methyl-1H-indole-3-carboxamide] | – |
| > 7.00 | CCCC(=O)NC(C)c1ccc(C(=O)NO)cc1 (stereo not shown) [Compound I-243, 4-[1-(butyrylamino)ethyl]-N-hydroxybenzamide] | – |
| > 7.00 | CC(NC(=O)Nc1ccc(C#N)cc1)c1ccc(C(=O)NO)cc1 (stereo not shown) [Compound I-236, 4-[1-({[(4-cyanophenyl)amino]carbonyl}amino)ethyl]-N-hydroxybenzamide] | – |

Second part, the compound before the results:

| Compound | pIC50 [1] | other results |
| --- | --- | --- |
| Cc1c(C(=O)N[C@H](C)c2cccc(C(=O)NO)c2)oc2ccccc12 [Compound I-169, N-((1R)-1-{3-[(hydroxyamino)carbonyl]phenyl}ethyl)-3-methyl-1-benzofuran-2-carboxamide] | – | pIC50 (bin: greater than 1 μM): < 6.00 |
| COc1ccccc1CC(=O)NC(C)c1ccc(C(=O)NO)cc1 (stereo not shown) [Compound I-34, N-hydroxy-4-(1-{[(2-methoxyphenyl)acetyl]amino}ethyl)benzamide] | – | pIC50 (bin: greater than 1 μM): < 6.00 |
| O=C(NO)c1ccc([C@H](NC(=O)c2cc3ccccc3s2)c2ccccc2)cc1 [Compound I-99, N-[(R)-{4-[(hydroxyamino)carbonyl]phenyl}(phenyl)methyl]-1-benzothiophene-2-carboxamide] | > 7.00 | – |
| CC(C)CC(=O)NC(C)c1ccc(C(=O)NO)cc1 (stereo not shown) [Compound I-111, N-hydroxy-4-{1-[(3-methylbutanoyl)amino]ethyl}benzamide] | – | pIC50 (bin: greater than 1 μM): < 6.00 |
| CC(C)(C)C(NC(=O)C1(c2ccc(Cl)cc2)CC1)c1ccc(C(=O)NO)cc1 (stereo not shown) [Compound I-41, 4-[1-({[1-(4-chlorophenyl)cyclopropyl]carbonyl}amino)-2,2-dimethylpropyl]-N-hydroxybenzamide] | – | IC50: 500 to 1000 nM |
| CC(NC(=O)c1cc2cc(Cl)ccc2o1)c1cccc(C(=O)NO)c1 (stereo not shown) [Compound I-226, 5-chloro-N-(1-{3-[(hydroxyamino)carbonyl]phenyl}ethyl)-1-benzofuran-2-carboxamide] | 6.30 to 7.00 | – |
| CC(NC(=O)c1cc(C(C)(C)C)nn1C)c1cccc(C(=O)NO)c1 (stereo not shown) [Compound I-309, 3-tert-butyl-N-(1-{3-[(hydroxyamino)carbonyl]phenyl}ethyl)-1-methyl-1H-pyrazole-5-carboxamide] | – | IC50: 500 to 1000 nM |
| CC(NC(=O)Nc1ccccc1Oc1ccccc1)c1ccc(C(=O)NO)cc1 (stereo not shown) [Compound I-31, N-hydroxy-4-[1-({[(2-phenoxyphenyl)amino]carbonyl}amino)ethyl]benzamide] | > 7.00 | – |
| CC(NC(=O)C12CC3CC(CC(C3)C1)C2)c1cccc(C(=O)NO)c1 (stereo not shown) [Compound I-83, N-(1-{3-[(hydroxyamino)carbonyl]phenyl}ethyl)adamantane-1-carboxamide] | – | pIC50 (bin: greater than 1 μM): < 6.00 |
| CC(C)(C)C(NC(=O)c1cc(F)cc(F)c1)c1ccc(C(=O)NO)cc1 (stereo not shown) [Compound I-251, 3,5-difluoro-N-(1-{4-[(hydroxyamino)carbonyl]phenyl}-2,2-dimethylpropyl)benzamide] | – | IC50: 500 to 1000 nM |
| CCC[C@@H](NC(=O)c1ccc(OC)cc1)c1ccc(C(=O)NO)cc1 [Compound I-146, N-((1R)-1-{4-[(hydroxyamino)carbonyl]phenyl}butyl)-4-methoxybenzamide] | > 7.00 | – |
| Cc1nc(CC(=O)NC(C)c2ccc(C(=O)NO)cc2)c(C)s1 (stereo not shown) [Compound I-217, 4-(1-{[(2,5-dimethyl-1,3-thiazol-4-yl)acetyl]amino}ethyl)-N-hydroxybenzamide] | – | pIC50 (bin: greater than 1 μM): < 6.00 |
| CC(NC(=O)C1CCCCC1)c1ccc(C(=O)NO)cc1 (stereo not shown) [Compound I-208, 4-{1-[(cyclohexylcarbonyl)amino]ethyl}-N-hydroxybenzamide] | > 7.00 | – |
| C[C@@H](NC(=O)C1(C)CCCCC1)c1ccc(C(=O)NO)cc1 [Compound I-26, N-hydroxy-4-((1R)-1-{[(1-methylcyclohexyl)carbonyl]amino}ethyl)benzamide] | > 7.00 | – |
| Cc1cccc(NC(=O)NC(C)c2ccc(C(=O)NO)cc2)c1 (stereo not shown) [Compound I-85, N-hydroxy-4-[1-({[(3-methylphenyl)amino]carbonyl}amino)ethyl]benzamide] | > 7.00 | – |
| Cc1nc(C(=O)NC(C)c2cccc(C(=O)NO)c2)cs1 (stereo not shown) [Compound I-29, N-(1-{3-[(hydroxyamino)carbonyl]phenyl}ethyl)-2-methyl-1,3-thiazole-4-carboxamide] | – | IC50: 500 to 1000 nM |
| C[C@@H](NC(=O)c1cccn1C)c1cccc(C(=O)NO)c1 [Compound I-271, N-((1R)-1-{3-[(hydroxyamino)carbonyl]phenyl}ethyl)-1-methyl-1H-pyrrole-2-carboxamide] | – | IC50: 500 to 1000 nM |
| CC(C)[C@@H](NS(=O)(=O)c1ccc(C(F)(F)F)cc1)c1ccc(C(=O)NO)cc1 [Compound I-189, N-hydroxy-4-[(1R)-2-methyl-1-({[4-(trifluoromethyl)phenyl]sulfonyl}amino)propyl]benzamide] | – | pIC50 (bin: greater than 1 μM): < 6.00 |
| Cn1c(C(=O)NC(c2ccc(C(=O)NO)cc2)C(C)(C)C)cc(Cl)c1Cl (stereo not shown) [Compound I-386, 4,5-dichloro-N-(1-{4-[(hydroxyamino)carbonyl]phenyl}-2,2-dimethylpropyl)-1-methyl-1H-pyrrole-2-carboxamide] | – | pIC50 (bin: greater than 1 μM): < 6.00 |
| Cc1ccc(S(=O)(=O)NC(C)c2ccc(C(=O)NO)cc2)c(C)c1 (stereo not shown) [Compound I-78, 4-(1-{[(2,4-dimethylphenyl)sulfonyl]amino}ethyl)-N-hydroxybenzamide] | 6.30 to 7.00 | – |
| CC(C)C(NC(=O)C(c1ccccc1)c1ccccc1)c1ccc(C(=O)NO)cc1 (stereo not shown) [Compound I-204, 4-{1-[(diphenylacetyl)amino]-2-methylpropyl}-N-hydroxybenzamide] | – | IC50: 500 to 1000 nM |

— US9382197B2, “Substituted hydroxamic acids and uses thereof” (Millennium Pharmaceuticals, Inc., priority 2010, dated 2016)
